Measurements published in ChEMBL document CHEMBL1201861, “Genomics of Drug Sensitity in Cancer screening data, Wellcome Trust Sanger Institute”.
pIC50: −log10 of the molar value. Several values for one entry are separate records, joined by “and”; a condition that tells them apart may be missing. Identical values can stand only once.

What was measured:
Experiment in all cases: cells
KARPAS-299 = assay type: functional, cell-based; settings: Homo sapiens
Description: SANGER: Inhibition of human KARPAS-299 cell growth in a cell viability assay.

MFM-223 = assay type: functional, cell-based, Homo sapiens; settings: mfm-223
Description: SANGER: Inhibition of human MFM-223 cell growth in a cell viability assay.

ML-2 = assay type: functional, cell-based; settings: Homo sapiens;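 further: growth inhibition of ML-2 cells, measured with a cell viability readout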
Description: SANGER: Inhibition of human ML-2 cell growth in a cell viability assay.

SW1417 = assay type: functional, cell-based, Homo sapiens; settings: sw1417;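 further: growth inhibition of human SW1417 cells, read out with a cell viability assay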
Description: SANGER: Inhibition of human SW1417 cell growth in a cell viability assay.

MV4-11 = assay type: functional, cell-based, MV-4-11; settings: Homo sapiens;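 further: cell viability readout measuring growth inhibition of human MV-4-11 cells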
Description: SANGER: Inhibition of human MV-4-11 cell growth in a cell viability assay.

RS4-11 = assay type: functional, cell-based; settings: Homo sapiens;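 further: growth inhibition of RS4-11 cells, read out by a cell viability assay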
Description: SANGER: Inhibition of human RS4-11 cell growth in a cell viability assay.

ChaGo-K-1 = assay type: functional, cell-based; settings: Homo sapiens;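 further: growth inhibition of ChaGo-K-1 cells, read out with a cell viability assay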
Description: SANGER: Inhibition of human ChaGo-K-1 cell growth in a cell viability assay.

ACN = assay type: functional, cell-based, Homo sapiens;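 further: growth inhibition of the human ACN cell line, read out via cell viability testing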
Description: SANGER: Inhibition of human ACN cell growth in a cell viability assay.

KMOE-2 = assay type: functional, cell-based; settings: Homo sapiens;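 further: growth inhibition of human KMOE-2 cells, read out with a cell viability assay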
Description: SANGER: Inhibition of human KMOE-2 cell growth in a cell viability assay.

GAK = assay type: functional, cell-based, Homo sapiens; settings: gak;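 further: cell growth inhibition read out by a cell viability assay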
Description: SANGER: Inhibition of human GAK cell growth in a cell viability assay.

LB373-MEL-D = assay type: functional, cell-based, Homo sapiens; settings: lb373-mel-d;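 further: growth inhibition of the cell line, read out in a cell viability assay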
Description: SANGER: Inhibition of human LB373-MEL-D cell growth in a cell viability assay.

KGN = assay type: functional, cell-based, Homo sapiens; settings: kgn;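 further: growth inhibition of KGN cells, read out with a cell viability assay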
Description: SANGER: Inhibition of human KGN cell growth in a cell viability assay.

SCH = assay type: functional, cell-based, Homo sapiens; settings: sch;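 further: growth inhibition of human SCH cells, read out in a cell viability assay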
Description: SANGER: Inhibition of human SCH cell growth in a cell viability assay.

KYSE-410 = assay type: functional, cell-based, Homo sapiens; settings: kyse-410;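 further: growth inhibition of KYSE-410 cells, measured through a cell viability readout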
Description: SANGER: Inhibition of human KYSE-410 cell growth in a cell viability assay.

NCI-H1648 = assay type: functional, cell-based, Homo sapiens;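 further: cell viability assay measuring inhibition of NCI-H1648 cell growth, from the Sanger screening data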
Description: SANGER: Inhibition of human NCI-H1648 cell growth in a cell viability assay.

P30-OHK = assay type: functional, cell-based; settings: Homo sapiens;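 further: growth inhibition of the P30-OHK cell line, read out with a cell viability assay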
Description: SANGER: Inhibition of human P30-OHK cell growth in a cell viability assay.

A-431 = assay type: functional, cell-based, Homo sapiens; settings: a-431;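 further: growth inhibition of A-431 cells, determined with a cell viability read-out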
Description: SANGER: Inhibition of human A431 cell growth in a cell viability assay.

LCLC-97TM1 = assay type: functional, cell-based, Homo sapiens;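 further: cell viability assay measuring growth inhibition of human LCLC-97TM1 cells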
Description: SANGER: Inhibition of human LCLC-97TM1 cell growth in a cell viability assay.

SH-4 = assay type: functional, cell-based, Homo sapiens; settings: sh-4;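 further: growth inhibition of SH-4 cells, read out with a cell viability assay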
Description: SANGER: Inhibition of human SH-4 cell growth in a cell viability assay.

MMAC-SF = assay type: functional, cell-based, Homo sapiens; settings: mmac-sf;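 further: growth inhibition of human MMAC-SF cells, read out with a cell viability assay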
Description: SANGER: Inhibition of human MMAC-SF cell growth in a cell viability assay.

HOS = assay type: functional, cell-based, Homo sapiens; settings: hos;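 further: growth inhibition of human HOS cells, read out with a cell viability assay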
Description: SANGER: Inhibition of human HOS cell growth in a cell viability assay.

NCI-H209 = assay type: functional, cell-based; settings: Homo sapiens;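 further: growth inhibition of human NCI-H209 cells, measured by a cell viability assay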
Description: SANGER: Inhibition of human NCI-H209 cell growth in a cell viability assay.

NCI-H526 = assay type: functional, cell-based; settings: Homo sapiens;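 further: growth inhibition of the human NCI-H526 cell line, measured by a cell viability assay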
Description: SANGER: Inhibition of human NCI-H526 cell growth in a cell viability assay.

TE-10 = assay type: functional, cell-based, Homo sapiens; settings: te-10;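 further: growth inhibition of TE-10 cells, measured by a cell viability assay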
Description: SANGER: Inhibition of human TE-10 cell growth in a cell viability assay.

Becker = assay type: functional, cell-based, Homo sapiens; settings: becker;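 further: growth inhibition of Becker cells, read out with a cell viability assay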
Description: SANGER: Inhibition of human Becker cell growth in a cell viability assay.

DBTRG-05MG = assay type: functional, cell-based, Homo sapiens; settings: dbtrg-05mg;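 further: cell viability assay measuring growth inhibition of human DBTRG-05MG cells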
Description: SANGER: Inhibition of human DBTRG-05MG cell growth in a cell viability assay.

DJM-1 = assay type: functional, cell-based, Homo sapiens; settings: djm-1;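 further: growth inhibition of human DJM-1 cells, read out by a cell viability assay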
Description: SANGER: Inhibition of human DJM-1 cell growth in a cell viability assay.

MDA-MB-453 = assay type: functional, cell-based, Homo sapiens; settings: mda-mb-453
Description: SANGER: Inhibition of human MDA-MB-453 cell growth in a cell viability assay.

LB2241-RCC = assay type: functional, cell-based, Homo sapiens; settings: lb2241-rcc;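 further: cell viability assay measuring how strongly the cultured human renal carcinoma line is prevented from growing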
Description: SANGER: Inhibition of human LB2241-RCC cell growth in a cell viability assay.

YAPC = assay type: functional, cell-based, Homo sapiens; settings: yapc;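 further: growth inhibition of YAPC cells, measured with a cell viability assay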
Description: SANGER: Inhibition of human YAPC cell growth in a cell viability assay.

L-363 = assay type: functional, cell-based; settings: Homo sapiens
Description: SANGER: Inhibition of human L-363 cell growth in a cell viability assay.

NCI-H1155 = assay type: functional, cell-based; settings: Homo sapiens;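 further: cell growth inhibition measured by a viability assay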
Description: SANGER: Inhibition of human NCI-H1155 cell growth in a cell viability assay.

HuP-T4 = assay type: functional, cell-based, Homo sapiens; settings: hup-t4;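 further: cell viability assay measuring how much HuP-T4 cell growth is inhibited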
Description: SANGER: Inhibition of human HuP-T4 cell growth in a cell viability assay.

CAL-62 = assay type: functional, cell-based, Homo sapiens; settings: cal-62;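 further: growth inhibition of CAL-62 cells, read out with a cell viability assay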
Description: SANGER: Inhibition of human CAL-62 cell growth in a cell viability assay.

D-247MG = assay type: functional, cell-based, Homo sapiens; settings: d-247mg
Description: SANGER: Inhibition of human D-247MG cell growth in a cell viability assay.

NCI-H2087 = assay type: functional, cell-based, Homo sapiens;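 further: growth inhibition determined with a cell viability readout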
Description: SANGER: Inhibition of human NCI-H2087 cell growth in a cell viability assay.

KM-H2 = assay type: functional, cell-based; settings: Homo sapiens;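 further: growth inhibition of KM-H2 cells, read out by a cell viability assay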
Description: SANGER: Inhibition of human KM-H2 cell growth in a cell viability assay.

GAMG = assay type: functional, cell-based, Homo sapiens; settings: gamg;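 further: cell growth inhibition measured by a viability assay in the GAMG human cell line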
Description: SANGER: Inhibition of human GAMG cell growth in a cell viability assay.

LOX IMVI = assay type: functional, cell-based; settings: Homo sapiens
Description: SANGER: Inhibition of human LOXIMVI cell growth in a cell viability assay.

A2780 = assay type: functional, cell-based, Homo sapiens; settings: a2780;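 further: growth inhibition of A2780 cells, read out with a cell viability assay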
Description: SANGER: Inhibition of human A2780 cell growth in a cell viability assay.

JVM-3 = assay type: functional, cell-based; settings: Homo sapiens;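 further: growth inhibition of human JVM-3 cells, read out with a cell viability assay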
Description: SANGER: Inhibition of human JVM-3 cell growth in a cell viability assay.

SK-MEL-1 = assay type: functional, cell-based; settings: Homo sapiens;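 further: growth inhibition of human SK-MEL-1 cells, read out by a cell viability assay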
Description: SANGER: Inhibition of human SK-MEL-1 cell growth in a cell viability assay.

DK-MG = assay type: functional, cell-based, Homo sapiens; settings: dk-mg;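 further: growth inhibition of DK-MG cells, read out with a cell viability assay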
Description: SANGER: Inhibition of human DK-MG cell growth in a cell viability assay.

GCT = assay type: functional, cell-based, Homo sapiens; settings: gct;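 further: GCT cell line proliferation inhibition, read out with a cell viability assay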
Description: SANGER: Inhibition of human GCT cell growth in a cell viability assay.

HC-1 = assay type: functional, cell-based; settings: Homo sapiens;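 further: growth inhibition of HC-1 cells measured by a cell viability assay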
Description: SANGER: Inhibition of human HC-1 cell growth in a cell viability assay.

NB12 = assay type: functional, cell-based, Homo sapiens; settings: nb12;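 further: growth inhibition of human NB12 cells, read out by a cell viability assay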
Description: SANGER: Inhibition of human NB12 cell growth in a cell viability assay.

BV-173 = assay type: functional, cell-based; settings: Homo sapiens
Description: SANGER: Inhibition of human BV-173 cell growth in a cell viability assay.

GB-1 = assay type: functional, cell-based, Homo sapiens; settings: gb-1;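 further: growth of GB-1 cells judged by a viability assay, IC50 marks the concentration inhibiting growth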
Description: SANGER: Inhibition of human GB-1 cell growth in a cell viability assay.

HCE-4 = assay type: functional, cell-based, Homo sapiens; settings: hce-4;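 further: cell viability assay measuring inhibition of growth in the human HCE-4 cell line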
Description: SANGER: Inhibition of human HCE-4 cell growth in a cell viability assay.

CAL-72 = assay type: functional, cell-based, Homo sapiens;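 further: cell viability assay measuring inhibition of proliferation in the CAL-72 cell line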
Description: SANGER: Inhibition of human CAL-72 cell growth in a cell viability assay.

NCI-H1770 = assay type: functional, cell-based; settings: Homo sapiens;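 further: growth inhibition of NCI-H1770 cells determined with a viability readout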
Description: SANGER: Inhibition of human NCI-H1770 cell growth in a cell viability assay.

SF-295 = assay type: functional, cell-based, Homo sapiens; settings: sf-295; read-out: IC50;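 further: growth inhibition of SF-295 cells, read out with a cell viability assay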
Description: SANGER: Inhibition of human SF295 cell growth in a cell viability assay.

OAW-42 = assay type: functional, cell-based, Homo sapiens; settings: oaw-42;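 further: growth inhibition of OAW-42 cells, read out with a cell viability assay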
Description: SANGER: Inhibition of human OAW-42 cell growth in a cell viability assay.

Measured: pIC50

Cc1cc([C@@H](C)Nc2ccccc2C(=O)O)c2nc(N3CCOCC3)cc(=O)n2c1 [AZD-6482]
5.81 and < 5.29: NB12
< 5.29 and 5.63: MDA-MB-453
6.13: RS4-11
5.45: ML-2
< 5.29 and 5.88: LB2241-RCC
5.97: P30-OHK
5.36 and < 5.29: KGN
5.56 and < 5.29: SF-295
5.87 and 5.34: Becker
5.35 and 6.00: GAMG
< 5.29 and 5.59: A2780
< 5.29: KARPAS-299 | MFM-223 | SW1417 | ChaGo-K-1 | ACN; Homo sapiens, ACN | ACN; acn | KMOE-2 | GAK | LB373-MEL-D | SCH | KYSE-410 | NCI-H1648; Homo sapiens, NCI-H1648 | NCI-H1648; nci-h1648 | A-431 | LCLC-97TM1; Homo sapiens, LCLC-97TM1 | LCLC-97TM1; lclc-97tm1 | SH-4 | MMAC-SF | HOS | NCI-H209 | NCI-H526 | TE-10 | DBTRG-05MG | DJM-1 | YAPC | L-363 | NCI-H1155 | HuP-T4 | CAL-62 | D-247MG | NCI-H2087; Homo sapiens, NCI-H2087 | NCI-H2087; nci-h2087 | KM-H2 | LOX IMVI | JVM-3 | SK-MEL-1 | DK-MG | GCT | HC-1 | BV-173 | GB-1 | HCE-4 | CAL-72; Homo sapiens, CAL-72 | CAL-72; cal-72 | NCI-H1770 | OAW-42
5.57: MV4-11
